Assay results published in patent US20260199299A1, “BETA CARBOLINES AS TOPICAL ANTI-INFLAMMATORY AGENTS FOR APPLICATION TO MUCOUS MEMBRANES” (President and Fellows of Harvard College, priority 2022, published 2026).

Test system: NFκB
Test: NFκB induction in primary monocytes (FIG. 9A-9C)
Format: cell-based

SMILES: OCc1ccc(-c2nccc3c2[nH]c2ccccc23)o1 [Compound 8]
- suppression of NFκB induction in primary monocytes: suppression of NFκB induction
